Literature values in patent EP0502666B2, “Ingestible compositions containing water-soluble, high-viscosity grade cellulose ethers” (THE UNIVERSITY OF MICHIGAN, priority 1991, dated 1992).

Structure (SMILES): CN(C)C(=N)N=C(N)N [metformin]
- patients with side effects that lead to the withdrawal of the drug (in vivo): ~5%
- patients with gastrointestinal side effects, initially (usually transient): 5-20%
